Data reported in US20210121527A1, “METHODS OF TREATING MINIMAL RESIDUAL CANCER” (ICAHN SCHOOL OF MEDICINE AT MOUNT SINAI, priority 2018, published 2021).

Legend:
Assay in all cases: DiscoveRx scanMAX kinase profiling
Type in all cases: binding
[1] = target: T1, AKT2 (Homo sapiens, UniProt P31751); conditions: read-out: Direct inhibitory activity on AKT2 (KINOMEscan)
T1 construct: purchased DiscoverX (San Diego, Calif.) scanMAX
Protocol: (§1) Biochemical assays: Recombinant human EIF2AK3 (PERK) catalytic domain (amino acids 536-1116; Cat # PV5107), GFP-eIF2a (Cat # PV4809) substrate, and Terbium-labelled phospho-eIF2a antibody (Cat # PR8956B) were purchased from Invitrogen (Carlsbad, Calif.). HIS-SUMO-GCN2 catalytic domain (amino acids 584-1019) was expressed and purified from E. coli. TR-FRET kinase assays were performed in the absence or presence of inhibitors in a reaction buffer consisting of 50 mM HEPES, pH 7.5, 10 mMMgCl2, 1.0 mM EGTA, and 0.01% Brij-35, and 100-200 nM GFP-eIF2a substrate. […] Following the addition of test compound, the reaction was initiated by addition of enzyme and incubated at room temperature for 45 minutes. The reaction was stopped by addition of EDTA to a final concentration of 10 mM and Terbium-labelled phospho-eIF2α antibody was added at a final concentration of 2 nM and incubated for 90 minutes. The resulting fluorescence was monitored in an EnVison® Multilabel reader (PerkinElmer, Waltham, Mass.). TR-FRET ratios and the resulting IC50 values were determined from the fitted inhibition curves. Biochemical specificity profiling was performed at Cerep (Redmond, Wash.) and DiscoverX (San Diego, Calif.).

[2] = target: T2, AKT3 (Homo sapiens, UniProt Q9Y243); conditions: read-out: Direct inhibitory activity on AKT3 (KINOMEscan)
T2 construct: purchased DiscoverX (San Diego, Calif.) scanMAX
T2 sequence (Q9Y243 whole entry): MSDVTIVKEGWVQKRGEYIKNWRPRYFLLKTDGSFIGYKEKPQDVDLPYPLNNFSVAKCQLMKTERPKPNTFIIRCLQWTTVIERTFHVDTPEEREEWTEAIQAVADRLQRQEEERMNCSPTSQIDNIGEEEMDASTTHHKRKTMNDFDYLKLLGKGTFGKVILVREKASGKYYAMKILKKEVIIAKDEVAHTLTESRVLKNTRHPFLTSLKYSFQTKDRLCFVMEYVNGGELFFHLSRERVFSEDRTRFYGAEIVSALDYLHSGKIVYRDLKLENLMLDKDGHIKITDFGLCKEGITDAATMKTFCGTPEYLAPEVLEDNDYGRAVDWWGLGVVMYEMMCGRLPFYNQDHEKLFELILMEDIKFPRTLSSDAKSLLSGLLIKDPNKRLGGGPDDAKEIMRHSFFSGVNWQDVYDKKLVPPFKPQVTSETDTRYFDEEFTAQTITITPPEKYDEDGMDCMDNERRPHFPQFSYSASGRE
Protocol: as §1

[3] = target: T3, CSK (Homo sapiens, UniProt P41240); conditions: read-out: Direct inhibitory activity on CSK (KINOMEscan)
T3 construct: purchased DiscoverX (San Diego, Calif.)
T3 sequence (P41240 whole entry): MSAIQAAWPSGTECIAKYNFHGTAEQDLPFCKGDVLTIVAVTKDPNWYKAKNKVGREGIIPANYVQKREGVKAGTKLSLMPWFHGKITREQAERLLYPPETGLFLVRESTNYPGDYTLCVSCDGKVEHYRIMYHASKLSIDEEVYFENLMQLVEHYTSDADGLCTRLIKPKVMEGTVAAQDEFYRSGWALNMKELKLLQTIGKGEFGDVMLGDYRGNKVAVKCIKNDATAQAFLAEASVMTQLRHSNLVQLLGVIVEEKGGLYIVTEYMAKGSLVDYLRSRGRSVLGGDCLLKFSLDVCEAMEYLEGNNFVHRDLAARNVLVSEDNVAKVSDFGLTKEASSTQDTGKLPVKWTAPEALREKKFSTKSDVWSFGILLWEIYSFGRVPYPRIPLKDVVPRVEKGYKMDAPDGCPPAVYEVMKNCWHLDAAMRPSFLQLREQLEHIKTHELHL
Protocol: as §1

[4] = target: T4, EIF2AK1 (Homo sapiens, UniProt Q9BQI3); conditions: read-out: Inhibition of EIF2AK1 (KINOMEscan)
T4 construct: purchased DiscoverX (San Diego, Calif.) scanMAX
T4 sequence (Q9BQI3 whole entry): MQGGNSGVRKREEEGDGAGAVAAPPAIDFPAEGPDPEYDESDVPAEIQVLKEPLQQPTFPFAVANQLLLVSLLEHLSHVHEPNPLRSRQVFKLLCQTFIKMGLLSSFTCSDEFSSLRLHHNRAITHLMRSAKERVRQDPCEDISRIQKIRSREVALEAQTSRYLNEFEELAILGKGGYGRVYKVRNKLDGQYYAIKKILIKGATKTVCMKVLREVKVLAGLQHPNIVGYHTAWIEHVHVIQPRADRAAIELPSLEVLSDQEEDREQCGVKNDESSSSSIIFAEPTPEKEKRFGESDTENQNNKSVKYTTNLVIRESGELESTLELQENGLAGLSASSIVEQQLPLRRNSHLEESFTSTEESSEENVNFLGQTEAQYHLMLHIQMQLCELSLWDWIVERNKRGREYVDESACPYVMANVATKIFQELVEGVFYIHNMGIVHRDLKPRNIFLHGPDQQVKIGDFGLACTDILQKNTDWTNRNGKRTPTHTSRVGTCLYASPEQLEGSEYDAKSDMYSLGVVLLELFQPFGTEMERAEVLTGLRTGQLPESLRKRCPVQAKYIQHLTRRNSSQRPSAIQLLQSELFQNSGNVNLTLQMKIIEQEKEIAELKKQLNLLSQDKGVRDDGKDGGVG
Protocol: as §1

[5] = target: T5, ERBB2 (Homo sapiens, UniProt P04626); conditions: read-out: Direct inhibitory activity on ERBB2 (KINOMEscan)
T5 construct: purchased DiscoverX (San Diego, Calif.) scanMAX
T5 sequence (P04626 23-1255): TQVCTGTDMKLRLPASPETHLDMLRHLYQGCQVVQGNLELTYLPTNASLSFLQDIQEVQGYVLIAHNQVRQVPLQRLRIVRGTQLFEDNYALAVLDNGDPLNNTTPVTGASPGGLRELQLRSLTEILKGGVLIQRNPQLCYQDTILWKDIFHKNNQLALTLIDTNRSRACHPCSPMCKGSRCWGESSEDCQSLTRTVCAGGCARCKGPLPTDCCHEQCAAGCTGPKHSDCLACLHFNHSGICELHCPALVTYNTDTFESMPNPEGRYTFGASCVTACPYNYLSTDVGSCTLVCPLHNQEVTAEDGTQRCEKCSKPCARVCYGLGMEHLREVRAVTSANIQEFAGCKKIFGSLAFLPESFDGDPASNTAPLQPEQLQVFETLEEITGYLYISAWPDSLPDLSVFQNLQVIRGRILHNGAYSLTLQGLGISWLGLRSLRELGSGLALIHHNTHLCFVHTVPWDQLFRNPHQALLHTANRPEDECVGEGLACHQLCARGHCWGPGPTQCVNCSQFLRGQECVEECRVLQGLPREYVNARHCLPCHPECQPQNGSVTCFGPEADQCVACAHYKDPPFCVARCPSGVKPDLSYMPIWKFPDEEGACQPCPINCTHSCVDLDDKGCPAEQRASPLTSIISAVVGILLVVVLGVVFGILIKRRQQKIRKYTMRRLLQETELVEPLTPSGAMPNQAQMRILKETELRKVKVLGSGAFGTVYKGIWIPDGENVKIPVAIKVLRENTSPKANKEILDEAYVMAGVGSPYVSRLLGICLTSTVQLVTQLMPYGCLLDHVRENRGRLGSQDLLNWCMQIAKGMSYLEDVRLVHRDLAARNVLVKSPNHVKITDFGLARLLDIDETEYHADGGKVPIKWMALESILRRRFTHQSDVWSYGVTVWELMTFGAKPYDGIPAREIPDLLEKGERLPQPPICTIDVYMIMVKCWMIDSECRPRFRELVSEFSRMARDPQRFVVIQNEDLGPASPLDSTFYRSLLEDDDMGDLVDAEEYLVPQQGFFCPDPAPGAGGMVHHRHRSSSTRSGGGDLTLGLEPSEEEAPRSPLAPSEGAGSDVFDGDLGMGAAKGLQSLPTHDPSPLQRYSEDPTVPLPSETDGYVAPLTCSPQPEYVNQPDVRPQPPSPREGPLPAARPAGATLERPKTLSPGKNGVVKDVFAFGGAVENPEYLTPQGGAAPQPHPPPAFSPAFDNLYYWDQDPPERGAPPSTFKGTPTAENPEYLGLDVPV
Protocol: as §1

[6] = target: T6, ERBB3 (Homo sapiens, UniProt P21860); conditions: read-out: Direct inhibitory activity on ERBB3 (KINOMEscan)
T6 construct: purchased DiscoverX (San Diego, Calif.) scanMAX
Protocol: as §1

[7] = target: T7, ERK1 (MAPK3) (Homo sapiens, UniProt P27361); conditions: read-out: Direct inhibitory activity on ERK1 (KINOMEscan)
T7 construct: purchased DiscoverX (San Diego, Calif.) scanMAX
T7 sequence (P27361 whole entry): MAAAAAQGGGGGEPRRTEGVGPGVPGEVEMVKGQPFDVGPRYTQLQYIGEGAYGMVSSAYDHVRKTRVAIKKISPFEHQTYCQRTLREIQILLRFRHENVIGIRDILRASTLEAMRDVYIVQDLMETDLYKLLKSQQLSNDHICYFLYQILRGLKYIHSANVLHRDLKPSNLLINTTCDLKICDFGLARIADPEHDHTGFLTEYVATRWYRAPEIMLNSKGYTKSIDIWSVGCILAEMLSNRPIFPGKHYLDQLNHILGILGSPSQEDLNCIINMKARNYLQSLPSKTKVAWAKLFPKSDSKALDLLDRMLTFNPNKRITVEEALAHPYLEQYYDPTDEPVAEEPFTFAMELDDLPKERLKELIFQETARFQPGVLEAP
Protocol: as §1

[8] = target: T8, ERK3 (MAPK6) (Homo sapiens, UniProt Q16659); conditions: read-out: Direct inhibitory activity on ERK3 (KINOMEscan)
T8 construct: purchased DiscoverX (San Diego, Calif.) scanMAX
Protocol: as §1

[9] = target: T9, ERK8 (MAPK15) (Homo sapiens, UniProt Q8TD08); conditions: read-out: Direct inhibitory activity on ERK8 (KINOMEscan)
T9 construct: purchased DiscoverX (San Diego, Calif.) scanMAX
T9 sequence (Q8TD08 1-544): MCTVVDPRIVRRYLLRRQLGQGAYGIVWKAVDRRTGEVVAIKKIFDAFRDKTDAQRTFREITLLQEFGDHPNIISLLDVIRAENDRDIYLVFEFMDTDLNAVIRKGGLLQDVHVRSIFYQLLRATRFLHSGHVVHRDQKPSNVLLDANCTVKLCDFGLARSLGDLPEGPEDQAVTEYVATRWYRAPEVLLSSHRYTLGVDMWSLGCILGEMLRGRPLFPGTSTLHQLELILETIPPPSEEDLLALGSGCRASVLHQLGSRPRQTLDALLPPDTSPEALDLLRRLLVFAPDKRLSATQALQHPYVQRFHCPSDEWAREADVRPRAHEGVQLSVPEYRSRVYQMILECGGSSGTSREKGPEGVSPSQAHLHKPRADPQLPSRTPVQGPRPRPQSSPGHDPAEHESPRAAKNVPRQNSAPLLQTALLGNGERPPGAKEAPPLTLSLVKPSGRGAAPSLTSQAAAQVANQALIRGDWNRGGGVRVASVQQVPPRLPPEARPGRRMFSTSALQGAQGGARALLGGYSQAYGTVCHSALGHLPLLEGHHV
Protocol: as §1

[10] = target: T10, PIK3CA (Homo sapiens, UniProt P42336); conditions: read-out: Direct inhibitory activity on PIK3CA (KINOMEscan)
T10 construct: purchased DiscoverX (San Diego, Calif.)
Protocol: as §1

[11] = target: T11, PIK3CB (Homo sapiens, UniProt P42338); conditions: read-out: Direct inhibitory activity on PIK3CB (KINOMEscan)
T11 construct: purchased DiscoverX (San Diego, Calif.)
Protocol: as §1

[12] = target: T12, S6K1 (RPS6KB1) (Homo sapiens, UniProt P23443); conditions: read-out: Direct inhibitory activity on S6K1 (KINOMEscan)
T12 construct: purchased DiscoverX (San Diego, Calif.) scanMAX
T12 sequence (P23443 whole entry): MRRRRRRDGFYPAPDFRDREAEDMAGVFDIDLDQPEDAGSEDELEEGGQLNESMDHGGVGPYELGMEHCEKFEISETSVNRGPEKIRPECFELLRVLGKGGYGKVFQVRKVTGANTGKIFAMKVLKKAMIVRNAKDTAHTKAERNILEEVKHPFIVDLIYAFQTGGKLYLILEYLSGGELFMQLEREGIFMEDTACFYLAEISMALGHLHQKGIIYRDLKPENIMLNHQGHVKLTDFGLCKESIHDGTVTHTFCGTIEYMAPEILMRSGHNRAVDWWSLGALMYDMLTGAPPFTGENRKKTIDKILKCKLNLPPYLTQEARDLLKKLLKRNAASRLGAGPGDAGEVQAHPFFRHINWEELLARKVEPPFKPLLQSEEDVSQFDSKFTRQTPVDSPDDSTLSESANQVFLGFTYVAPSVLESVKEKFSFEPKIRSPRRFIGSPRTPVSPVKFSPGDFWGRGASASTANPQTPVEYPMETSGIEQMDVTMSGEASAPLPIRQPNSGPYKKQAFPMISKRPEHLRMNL
Protocol: as §1

[13] = target: T13, SRC (Homo sapiens, UniProt P12931); conditions: read-out: Direct inhibitory activity on SRC (KINOMEscan)
T13 construct: purchased DiscoverX (San Diego, Calif.) scanMAX
T13 sequence (P12931 whole entry): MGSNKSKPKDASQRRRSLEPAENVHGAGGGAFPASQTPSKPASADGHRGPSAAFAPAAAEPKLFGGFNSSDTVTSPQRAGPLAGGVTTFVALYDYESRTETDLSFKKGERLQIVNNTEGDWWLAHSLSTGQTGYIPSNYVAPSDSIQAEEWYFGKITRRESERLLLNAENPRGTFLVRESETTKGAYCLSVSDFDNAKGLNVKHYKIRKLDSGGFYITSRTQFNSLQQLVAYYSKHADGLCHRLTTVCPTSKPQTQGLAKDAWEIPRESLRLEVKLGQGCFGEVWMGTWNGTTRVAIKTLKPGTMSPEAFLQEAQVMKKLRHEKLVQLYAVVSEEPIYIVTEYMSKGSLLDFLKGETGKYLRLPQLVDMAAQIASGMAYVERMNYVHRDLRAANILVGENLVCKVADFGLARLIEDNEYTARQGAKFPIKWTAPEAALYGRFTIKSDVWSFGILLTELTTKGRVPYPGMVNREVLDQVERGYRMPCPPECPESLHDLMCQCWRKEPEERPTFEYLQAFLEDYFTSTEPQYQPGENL
Protocol: as §1

T1 sequence (P31751 whole entry): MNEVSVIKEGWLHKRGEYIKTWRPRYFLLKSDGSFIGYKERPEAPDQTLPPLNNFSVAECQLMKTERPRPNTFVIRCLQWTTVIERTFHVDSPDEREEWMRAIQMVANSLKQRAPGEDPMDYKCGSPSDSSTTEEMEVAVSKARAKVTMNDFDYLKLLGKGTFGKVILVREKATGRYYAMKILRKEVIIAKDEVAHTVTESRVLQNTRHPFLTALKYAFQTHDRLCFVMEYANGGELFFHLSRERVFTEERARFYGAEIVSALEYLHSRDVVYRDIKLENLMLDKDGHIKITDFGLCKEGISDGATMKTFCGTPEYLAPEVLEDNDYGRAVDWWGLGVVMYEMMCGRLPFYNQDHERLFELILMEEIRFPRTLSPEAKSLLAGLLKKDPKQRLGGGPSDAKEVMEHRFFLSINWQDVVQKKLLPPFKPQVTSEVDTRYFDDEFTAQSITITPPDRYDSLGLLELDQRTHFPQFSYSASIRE

Structure (SMILES)	inhibition at 0.2 µM [1]	inhibition at 2 µM [1]	inhibition at 20 µM [1]	inhibition at 0.2 µM [2]	inhibition at 2 µM [2]	inhibition at 20 µM [2]	inhibition at 0.2 µM [3]	inhibition at 2 µM [3]	inhibition at 20 µM [3]	inhibition at 0.2 µM [4]	inhibition at 2 µM [4]	inhibition at 20 µM [4]	inhibition at 0.2 µM [5]	inhibition at 2 µM [5]	inhibition at 20 µM [5]	inhibition at 0.2 µM [6]	inhibition at 2 µM [6]	inhibition at 20 µM [6]	inhibition at 0.2 µM [7]	inhibition at 2 µM [7]	also measured
Cc1cccc(CC(=O)N2CCc3c2ccc(-c2cn(C)c4ncnc(N)c24)c3F)n1 [GSK2656157, reference compound]	0%	4%	8%	24%	7%	0%	0%	33%	64%	8%	77%	95%	57%	64%	97%	40%	22%	53%	0%	17%	inhibition at 20 µM [7]: 0%; inhibition at 0.2 µM [8]: 0%; inhibition at 2 µM [8]: 16%; inhibition at 20 µM [8]: 0%; inhibition at 0.2 µM [9]: 0%; inhibition at 2 µM [9]: 3%; inhibition at 20 µM [9]: 6%; inhibition at 0.2 µM [10]: 0%; inhibition at 2 µM [10]: 8%; inhibition at 20 µM [10]: 0%; inhibition at 0.2 µM [11]: 0%; inhibition at 2 µM [11]: 0%; inhibition at 20 µM [11]: 0%; inhibition at 0.2 µM [12]: 0%; inhibition at 2 µM [12]: 30%; inhibition at 20 µM [12]: 56%; inhibition at 0.2 µM [13]: 10%; inhibition at 2 µM [13]: 45%; inhibition at 20 µM [13]: 69%
Cc1cc(NC(=O)[C@H](O)c2cc(F)cc(F)c2)ccc1-c1cnc(N)c(C(=O)NC(C)C)c1 [LY4, 2-amino-5-[4-[[(2R)-2-(3,5-difluorophenyl)-2-hydroxy-acetyl]amino]-2-methyl-phenyl]-N-isopropyl-pyridine-3-carboxamide]	0%	0%	0%	0%	0%	13%	31%	0%	14%	0%	0%	35%	0%	0%	0%	0%	0%	0%	2%	18%	inhibition at 20 µM [7]: 0%; inhibition at 0.2 µM [8]: 0%; inhibition at 2 µM [8]: 32%; inhibition at 20 µM [8]: 3%; inhibition at 0.2 µM [9]: 0%; inhibition at 2 µM [9]: 0%; inhibition at 20 µM [9]: 0%; inhibition at 0.2 µM [10]: 9%; inhibition at 2 µM [10]: 0%; inhibition at 20 µM [10]: 8%; inhibition at 0.2 µM [11]: 0%; inhibition at 2 µM [11]: 0%; inhibition at 20 µM [11]: 12%; inhibition at 0.2 µM [12]: 31%; inhibition at 2 µM [12]: 0%; inhibition at 20 µM [12]: 24%; inhibition at 0.2 µM [13]: 0%; inhibition at 2 µM [13]: 1%; inhibition at 20 µM [13]: 11%
